Experimental data taken from patent EP2042491A1, “Pyridazines as fungicides” (Bayer CropScience AG, priority 2007, dated 2009).

Row | Structure (SMILES) | chromatographic logP (physchem) | further results
1 | Cc1nnc(Cl)c(-c2c(F)cccc2Cl)c1Oc1ccc(F)cc1 [2-67] | 3.56 | 
2 | Cc1nnc(Cl)c(-c2c(F)cccc2F)c1N1CCC(C)CC1 [1-58, 3-Chlor-4-(2,6-difluorphenyl)-6-methyl-5-(4-methylpiperidin-1-yl)pyridazin] | 3.87 | 
3 | COc1nnc(C)c(N2CCC(C)CC2)c1-c1c(F)cccc1F [6-1, 4-(2,6-Difluorphenyl)-3-methoxy-6-methyl-5-(4-methylpiperidin-1-yl)pyridazin] | 3.39 | 
4 | Cc1nnc(Cl)c(-c2c(F)cccc2Cl)c1Sc1cccc(OC(F)(F)F)c1 [3-46] | 4.72 | 
5 | COc1cccc(Oc2c(C)nnc(Cl)c2-c2c(F)cccc2Cl)c1 [2-73] | 3.56 | 
6 | Cc1nnc(Cl)c(-c2c(F)cccc2F)c1Cl [VIII-2, 3,5-Dichlor-4-(2,6-difluorphenyl)-6-methylpyridazin] | 2.93 | 
7 | COc1ccc(COc2c(C)nnc(Cl)c2-c2c(F)cccc2F)cc1 [2-42, 3-Chlor-4-(2,6-difluorphenyl)-5-(4-Methoxybenzyloxy)-6-methylpyridazin] | 3.35 | 
8 | Cc1nnc(Cl)c(-c2c(F)cccc2F)c1N1CCOCC1 [1-59] | 2.19 | 
9 | CCOC(=O)/C(C)=N\N(Cc1ccccc1)C(=O)Cc1c(F)cccc1Cl [V-1, Ethyl (2Z)-2-{benzyl[(2-chlor-6-fluorphenyl)acetyl] hydrazono}propanoat] |  | logP (given in the running text of the preparation examples; method presumably as footnote a) of the tables): 3.87
10 | Cc1nnc(Cl)c(-c2c(F)cccc2Cl)c1Oc1ccc(Cl)cc1Cl [2-70] | 4.46 | 
11 | COc1cc(Cl)cc(Oc2c(C)nnc(Cl)c2-c2c(F)cccc2Cl)c1 [2-72] | 4.13 | 
12 | Cc1nnc(Cl)c(-c2c(F)cccc2Cl)c1Cl [VIII-1, 3,5-Dichlor-4-(2-chlor-6-fluorphenyl)-6-methylpyridazin] | 3.24 | 
13 | Cc1nnc(Br)c(-c2c(F)cccc2Cl)c1Oc1ccc(Cl)cc1 [2-62] | 4.12 | 
14 | Cc1nnc(Cl)c(-c2c(F)cccc2F)c1[S+]([O-])c1ccc(Cl)cc1 (stereo not shown) [4-1, 3-Chlor-4-(2,6-difluorphenyl)-5-[(4-chlorphenyl)sulfinyl]-6-methylpyridazin] | 3.47 | 
15 | Cc1nnc(Cl)c(-c2c(F)cccc2F)c1N1CCCC1 [1-65] | 2.57 | 
16 | Cc1nnc(Cl)c(-c2c(F)cccc2F)c1NC(C)C(C)C (racemic) [1-62] | 2.99 | 
17 | Cc1nnc(Cl)c(-c2c(F)cccc2F)c1NCC(C)C [1-48] | 2.64 | 
18 | COCCOc1c(C)nnc(Cl)c1-c1c(F)cccc1Cl [2-84] | 2.6 | 
19 | Cc1nnc(Cl)c(-c2c(F)cccc2Cl)c1Oc1cc(Cl)ccc1Cl [2-80] | 4.27 | 
20 | Cc1nnc(Cl)c(-c2c(F)cccc2Cl)c1N1CCCC1C (stereo not shown) [1-97] | 3.32 | 
21 | Cc1nnc(Cl)c(-c2c(F)cccc2Cl)c1Sc1ccc(Cl)cc1Cl [3-39] | 4.87 | 
22 | Cc1nnc(Cl)c(-c2c(F)cccc2F)c1NCC1CC1 [1-52] | 2.46 | 
23 | Cc1nnc(Cl)c(-c2c(F)cccc2Cl)c1Sc1cccc(C(F)(F)F)c1 [3-41] | 4.51 | 
24 | Cc1cccc(Sc2c(C)nnc(Cl)c2-c2c(F)cccc2Cl)c1 [3-38] | 4.41 | 

Row | Structure (SMILES) | chromatographic logP (physchem) | further results
25 | Cc1nnc(Cl)c(-c2c(F)cccc2Cl)c1Oc1ccc(Oc2ccc(Cl)cc2)cc1 [2-82] | 5.03 | 
26 | Cc1nnc(Cl)c(-c2c(F)cccc2Cl)c1Oc1ccc(Cl)c(Cl)c1 [2-75] | 4.41 | 
27 | Cc1nnc(Cl)c(-c2c(F)cccc2Cl)c1N1CC[Si](C)(C)CC1 [1-95] | 4.75 | 
28 | Cc1nnc(Cl)c(-c2c(F)cccc2Cl)c1Oc1ccc(Cl)cc1 [2-60] | 4.13 | 
29 | NN(Cc1ccccc1)C(=O)Cc1c(F)cccc1Cl [III-1, N-Benzyl-2-(2-chlor-6-fluorphenyl)acetohydrazid] | 2.69 | 
30 | Cc1nnc(Cl)c(-c2c(F)cccc2Cl)c1Sc1ccc(F)cc1 [3-44] | 4.03 | 
31 | CCC(C)Sc1c(C)nnc(Cl)c1-c1c(F)cccc1F (stereo not shown) [3-23] | 3.99 | 
32 | Cc1nnc(Cl)c(-c2c(F)cccc2F)c1OCC(C)C [2-32] | 3.57 | 
33 | COc1cccc(Sc2c(C)nnc(Cl)c2-c2c(F)cccc2Cl)c1 [3-43] | 4.03 | 
34 | Cc1nnc(Cl)c(-c2c(F)cccc2F)c1N1CCCC1C (stereo not shown) [1-64] | 3.08 | 
35 | Cc1nnc(Cl)c(-c2c(F)cccc2Cl)c1Oc1cccc(C(F)(F)F)c1 [2-68] | 4.13 | 
36 | Cc1nnc(Cl)c(-c2c(F)cccc2Cl)c1Oc1cc(Cl)cc(Cl)c1 [2-81] | 4.61 | 
37 | Cc1nnc(Cl)c(-c2c(F)cccc2F)c1SC(C)C(C)C (stereo not shown) [3-21] | 4.37 | 
38 | Cc1nnc(Cl)c(-c2c(F)cccc2Cl)c1Nc1ccc(Cl)cc1 [1-99] | 3.18 | 
39 | Cc1nnc(Cl)c(-c2c(F)cccc2F)c1SC(C)C [3-25] | 3.57 | 
40 | Cc1nnc(Cl)c(-c2c(F)cccc2Cl)c1N1CCC2(C)CC2C1 (stereo not shown) [1-96] | 4.25 | 
41 | Cc1nnc(Cl)c(-c2c(F)cccc2Cl)c1OC1CCOCC1 [2-85] | 2.68 | 
42 | Cc1nnc(Cl)c(-c2c(F)cccc2Cl)c1NC1CC1 [1-86] | 2.35 | 
43 | Cc1nnc(Cl)c(-c2c(F)cccc2Cl)c1Oc1cccc(Cl)c1 [2-74] | 4.03 | 
44 | Cc1nnc(Cl)c(-c2c(F)cccc2F)c1NCc1ccccc1 [1-63] | 2.67 | 
45 | Cc1nnc(Cl)c(-c2c(F)cccc2Cl)c1Oc1ccccc1F [2-65] | 3.51 | 
46 | Cc1nnc(Cl)c(-c2c(F)cccc2F)c1OCC1CC1 [2-41] | 3.1 | 
47 | Cc1nnc(Cl)c(-c2c(F)cccc2F)c1OCC1(C)CC1 [2-43] | 3.53 | 
48 | Cc1nnc(Cl)c(-c2c(F)cccc2Cl)c1Sc1ccccc1F [3-40] | 3.99 | 

Row | Structure (SMILES) | chromatographic logP (physchem) | further results
49 | Cc1nnc(Cl)c(-c2c(F)cccc2Cl)c1Oc1cccc(OC(F)(F)F)c1 [2-79] | 4.32 | 
50 | Cc1nnc(Cl)c(-c2c(F)cccc2Cl)c1NC(C)C(C)C (racemic) [1-82] | 3.21 | 
51 | Cc1nnc(Cl)c(-c2c(F)cccc2F)c1NC(C)C [1-51] | 2.36 | 
52 | Cc1nnc(Cl)c(-c2c(F)cccc2Cl)c1Sc1ccc(Cl)cc1 [3-33, 3-Chlor-4-(2-chlor-6-fluorphenyl)-5-(4-chlorphenylsulfanyl)-6-methylpyridazin] | 4.65 | logP^a) (Table 3, HPLC on reversed-phase C18, 40°C, 0.1% aqueous formic acid / acetonitrile, linear gradient 10-95% acetonitrile): 4,65
53 | Cc1nnc(Cl)c(-c2c(F)cccc2Cl)c1Oc1cccc(F)c1 [2-66] | 3.65 | 
54 | Cc1nnc(Cl)c(-c2c(F)cccc2Cl)c1Oc1cccc(N(C)C)c1 [2-78] | 3.85 | 
55 | Cc1nnc(Cl)c(-c2c(F)cccc2F)c1Sc1ccc(Cl)cc1 [3-20, 3-Chlor-4-(2,6-difluorphenyl)-5-(4-chlorphenylsulfanyl)-6-methylpyridazin] | 4.35 | 
56 | Cc1nnc(Cl)c(-c2c(F)cccc2Cl)c1Sc1cccc(F)c1 [3-42] | 4.08 | 
57 | COCC(C)Nc1c(C)nnc(Cl)c1-c1c(F)cccc1F (stereo not shown) [1-53] | 2.25 | 
58 | Cc1nnc(Cl)c(-c2c(F)cccc2F)c1Oc1ccc(Cl)cc1 [2-39] | 3.86 | 
59 | Cc1n[nH]c(=O)c(-c2c(F)cccc2Cl)c1O [VII-1, 4-(2-Chlor-6-fluorphenyl)-5-hydroxy-6-methylpyridazin-3(2H)-on] | 0.88 | 
60 | Cc1nnc(Cl)c(-c2c(F)cccc2F)c1O [5-1, 3-Chlor-4-(2,6-difluorphenyl)-5-hydroxy-6-methylpyridazin] | 1.41 | 
61 | Cc1nnc(Cl)c(-c2c(F)cccc2F)c1N[C@H](C)C(C)C [1-46] | 3.04 | 
62 | Cc1nnc(Cl)c(-c2c(F)cccc2Cl)c1Oc1cccc(C#N)c1 [2-69] | 3.14 | 
63 | Cc1nnc(Cl)c(-c2c(F)cccc2Cl)c1Oc1cccc(C(C)(C)C)c1 [2-71] | 4.92 | 
64 | C#CCOc1c(C)nnc(Cl)c1-c1c(F)cccc1F [2-36] | 2.5 | 
65 | Cc1cccc(Oc2c(C)nnc(Cl)c2-c2c(F)cccc2Cl)c1 [2-76] | 3.99 | 
66 | Cc1nnc(Cl)c(-c2c(F)cccc2Cl)c1N1CCOCC1 [1-94] | 2.39 | 
67 | Cc1nnc(Cl)c(-c2c(F)cccc2Cl)c1Oc1ccc(C#N)cc1 [2-77] | 3.18 | 
68 | Cc1nnc(Cl)c(-c2c(F)cccc2F)c1NCC(C)(C)C [1-49] | 3.06 | 
69 | COCCOCCOc1c(C)nnc(Cl)c1-c1c(F)cccc1Cl [2-83] | 2.58 | 
70 | Cc1nnc(Cl)c(-c2c(F)cccc2F)c1N(C)CC(C)C [1-66] | 3.65 | 
71 | Cc1nn(Cc2ccccc2)c(=O)c(-c2c(F)cccc2Cl)c1O [VI-1, 2-Benzyl-4-(2-chlor-6-fluorphenyl)-5-hydroxy-6-methylpyridazin-3(2H)-on] | 2.58 | 
72 | Cc1nnc(Cl)c(-c2c(F)cccc2Cl)c1N1CCCC1 [1-98] | 2.82 | 
